Laboratory results taken from US6858414B2, “Multistage process for the preparation of highly pure deferoxamine mesylate salt” (Biogal Gyógyszergyár Rt., priority 1999, dated 2005).

Legend:
[1] = association constant; cited from earlier work
[2] = stability as solid and in concentrated solution; format: physicochemical
[3] = cited from earlier work
[4] = association constant; cited from earlier work; remark: listed apart in the source
[5] = tested on: secondary iron overload from multiple transfusions; details: cited from earlier work

In the case of `CC(=O)N(O)CCCCCNC(=O)CCC(=O)N(O)CCCCCNC(=O)CCC(=O)N(O)CCCCCN` [Deferoxamine B, N′-[5-[[4-[[5-(acetylhydroxyamino)pentyl]amino]-1,4-dioxobutyl]hydroxyamino]pentyl]-N-(5-aminopentyl)-N-hydroxy-butanediamide], the “affinity for ferric iron (Ka)” value [1] is listed as 10^31, the stability in solution ([2]; concentrated solution, on evaporation) is listed as “prone to decomposition in concentrated solution” and the stability as solid ([2]; solid) is listed as “reasonably stable solid”. The oral absorption [3] was “not well-absorbed orally”, the “affinity for calcium (Ka)” value [4] was 10^2 and the “accumulation of hepatic iron” value ([5]; long term therapy) was “slows accumulation of hepatic iron”. For the same compound, the “progression of hepatic fibrosis” value ([5]; long term therapy) was “retards or eliminates progression of hepatic fibrosis” and the iron excretion ([5]; patients with secondary iron overload from multiple transfusions) was “promotes iron excretion”.
